Laboratory results published in ChEMBL document CHEMBL1201862, “PubChem BioAssay data set” (2004).
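1) Cells in 96-well plates. 2) Compound, 48 h, 5 concentrations. 3) Linear interpolation between surrounding doses. 4) Unreached endpoint = highest concentration. GI50 = concentration required for 50% inhibition of growth.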 Calls of active or inactive are those of the source. Cut-off read from the data, not from the text of the source: active = GI50 up to about 1.1 µM and inactive = higher.

Assays:
Experiment in all cases: NCI anticancer screen, dose series, 48 h
SR = tested on: SR
SN12C = tested on: SN12C
LXFL 529 = tested on: LXFL 529
SK-MEL-5 = tested on: SK-MEL-5
MOLT-4 = tested on: MOLT-4
CCRF-CEM = tested on: CCRF-CEM
M19-MEL = tested on: M19-MEL
UACC-62 = tested on: UACC-62
SK-MEL-2 = tested on: SK-MEL-2
NCI-H23 = tested on: NCI-H23
UACC-257 = tested on: UACC-257
DLD-1 = tested on: DLD-1
Malme-3M = tested on: Malme-3M
UO-31 = tested on: UO-31
KM12 = tested on: KM12
OVCAR-5 = tested on: OVCAR-5
SNB-19 = tested on: SNB-19
DMS-114 = tested on: DMS-114
XF498 = tested on: XF498
OVCAR-8 = tested on: OVCAR-8
HOP-92 = tested on: HOP-92
NCI-H522 = tested on: NCI-H522
TK-10 = tested on: TK-10
CAKI-1 = tested on: CAKI-1
HL-60 = tested on: HL-60
HT-29 = tested on: HT-29
K562 = tested on: K562
A549 = tested on: A549
U-251 = tested on: U-251
OVCAR-4 = tested on: OVCAR-4
HOP-62 = tested on: HOP-62
RPMI-8226 = tested on: RPMI-8226
NCI-H226 = tested on: NCI-H226
SK-MEL-28 = tested on: SK-MEL-28
SF-295 = tested on: SF-295
A498 = tested on: A498
786-0 = tested on: 786-0
LOX IMVI = tested on: LOX IMVI
HCC 2998 = tested on: HCC 2998
SNB-78 = tested on: SNB-78
RXF 631 = tested on: RXF 631
DMS-273 = tested on: DMS-273
RXF 393 = tested on: RXF 393
SK-OV-3 = tested on: SK-OV-3
HCT-116 = tested on: HCT-116
NCI-H460 = tested on: NCI-H460
HCT-15 = tested on: HCT-15
OVCAR-3 = tested on: OVCAR-3
SF-539 = tested on: SF-539
IGROV-1 = tested on: IGROV-1
SF-268 = tested on: SF-268
SW-620 = tested on: SW-620
SNB-75 = tested on: SNB-75
M14 = tested on: M14
EKVX = tested on: EKVX
COLO 205 = tested on: COLO 205
KM-20L2 = tested on: KM-20L2
ACHN = tested on: ACHN

`O=C1c2c(c3c4ccccc4n(CC4CO4)c3c3[nH]c4ccccc4c23)C(=O)N1Cc1ccccc1` (centres undefined) was tested, and the GI50 (SR) was > 100 µM (inactive), the GI50 (SN12C) was > 100 µM (inactive) and the GI50 (LXFL 529) was > 100 µM (inactive). The GI50 (SK-MEL-5) was > 10 µM (inactive), the GI50 (MOLT-4) was 38.6 µM (inactive) and the GI50 (CCRF-CEM) was > 100 µM (inactive). The GI50 (M19-MEL) was > 100 µM (inactive), the GI50 (UACC-62) was > 100 µM (inactive) and the GI50 (SK-MEL-2) was > 100 µM (inactive). For the same molecule, the GI50 (NCI-H23) was > 100 µM (inactive), the GI50 (UACC-257) was > 100 µM (inactive) and the GI50 (DLD-1) was > 10 µM (inactive). For the same molecule, the GI50 (Malme-3M) was > 100 µM (inactive), the GI50 (UO-31) was > 100 µM (inactive) and the GI50 (KM12) was > 100 µM (inactive). The GI50 (OVCAR-5) was > 100 µM (inactive), the GI50 (SNB-19) was > 100 µM (inactive) and the GI50 (DMS-114) was > 100 µM (inactive). The GI50 (XF498) was 3.7 µM (inactive), the GI50 (OVCAR-8) was 48.2 µM (inactive) and the GI50 (HOP-92) was > 100 µM (inactive). For the same molecule, the GI50 (NCI-H522) was 25.4 µM (inactive), the GI50 (TK-10) was > 100 µM (inactive) and the GI50 (CAKI-1) was > 100 µM (inactive). For the same molecule, the GI50 (HL-60) was > 100 µM (inactive), the GI50 (HT-29) was > 100 µM (inactive) and the GI50 (K562) was 95.7 µM (inactive). The GI50 (A549) was > 100 µM (inactive), the GI50 (U-251) was > 100 µM (inactive) and the GI50 (OVCAR-4) was 33 µM (inactive). The GI50 (HOP-62) was > 100 µM (inactive), the GI50 (RPMI-8226) was > 100 µM (inactive) and the GI50 (NCI-H226) was 48.6 µM (inactive). For the same molecule, the GI50 (SK-MEL-28) was > 100 µM (inactive), the GI50 (SF-295) was > 100 µM (inactive) and the GI50 (A498) was 31.9 µM (inactive). For the same molecule, the GI50 (786-0) was > 100 µM (inactive), the GI50 (LOX IMVI) was > 100 µM (inactive) and the GI50 (HCC 2998) was > 100 µM (inactive). For the same molecule, the GI50 (SNB-78) was > 100 µM (inactive), the GI50 (RXF 631) was > 100 µM (inactive) and the GI50 (DMS-273) was > 100 µM (inactive). For the same molecule, the GI50 (RXF 393) was > 100 µM (inactive), the GI50 (SK-OV-3) was > 100 µM (inactive) and the GI50 (HCT-116) was > 100 µM (inactive). For the same molecule, the GI50 (NCI-H460) was 89.5 µM (inactive), the GI50 (HCT-15) was > 100 µM and the GI50 (OVCAR-3) was > 100 µM (inactive). The GI50 (SF-539) was 37.1 µM (inactive), the GI50 (IGROV-1) was 67 µM (inactive) and the GI50 (SF-268) was > 100 µM (inactive). For the same molecule, the GI50 (SW-620) was 77.6 µM (inactive), the GI50 (SNB-75) was > 10 µM (inactive) and the GI50 (M14) was > 100 µM (inactive).
For `O=C1O[C@H](c2ccccc2)[C@@H]2CC3(CCN12)OCCO3`, the GI50 (SR) was > 100 µM (inactive), the GI50 (SN12C) was > 100 µM (inactive) and the GI50 (LXFL 529) was > 100 µM (inactive). The GI50 (SK-MEL-5) was > 100 µM (inactive), the GI50 (MOLT-4) was > 100 µM (inactive) and the GI50 (CCRF-CEM) was > 100 µM (inactive). The GI50 (UACC-62) was > 100 µM (inactive), the GI50 (SK-MEL-2) was > 100 µM (inactive) and the GI50 (NCI-H23) was 68.9 µM (inactive). For the same molecule, the GI50 (UACC-257) was > 100 µM (inactive), the GI50 (UO-31) was > 100 µM (inactive) and the GI50 (EKVX) was > 100 µM (inactive). The GI50 (KM12) was > 100 µM (inactive), the GI50 (OVCAR-5) was > 100 µM (inactive) and the GI50 (SNB-19) was > 100 µM (inactive). The GI50 (XF498) was > 100 µM (inactive), the GI50 (OVCAR-8) was > 100 µM (inactive) and the GI50 (HOP-92) was 69.2 µM (inactive). For the same molecule, the GI50 (NCI-H522) was 2.2 µM (inactive), the GI50 (TK-10) was > 100 µM (inactive) and the GI50 (CAKI-1) was > 100 µM (inactive). For the same molecule, the GI50 (COLO 205) was > 100 µM (inactive), the GI50 (HL-60) was > 100 µM (inactive) and the GI50 (HT-29) was > 100 µM (inactive). The GI50 (K562) was > 100 µM (inactive), the GI50 (KM-20L2) was > 100 µM (inactive) and the GI50 (A549) was > 100 µM (inactive). For the same molecule, the GI50 (U-251) was > 100 µM (inactive), the GI50 (OVCAR-4) was > 100 µM (inactive) and the GI50 (HOP-62) was > 100 µM (inactive). For the same molecule, the GI50 (RPMI-8226) was > 100 µM (inactive), the GI50 (NCI-H226) was > 100 µM (inactive) and the GI50 (SK-MEL-28) was > 100 µM (inactive). The GI50 (SF-295) was > 100 µM (inactive), the GI50 (A498) was > 100 µM (inactive) and the GI50 (786-0) was > 100 µM (inactive). The GI50 (LOX IMVI) was > 100 µM (inactive), the GI50 (RXF 631) was > 100 µM (inactive) and the GI50 (DMS-273) was > 100 µM (inactive). For the same molecule, the GI50 (RXF 393) was > 100 µM (inactive), the GI50 (ACHN) was > 100 µM (inactive) and the GI50 (HCT-116) was > 100 µM (inactive). For the same molecule, the GI50 (NCI-H460) was > 100 µM (inactive), the GI50 (HCT-15) was > 100 µM and the GI50 (OVCAR-3) was > 100 µM (inactive). The GI50 (SF-539) was > 100 µM (inactive), the GI50 (IGROV-1) was > 100 µM (inactive) and the GI50 (SF-268) was > 100 µM (inactive). For the same molecule, the GI50 (SW-620) was > 100 µM (inactive) and the GI50 (M14) was > 100 µM (inactive).
